Experimental data from ChEMBL document CHEMBL1152721, “A simple in vitro assay for assessing the reactivity of nitrile containing compounds” (Bioorg Med Chem Lett, 2009).

Legend:
[1] = Binding affinity to glutathione assessed as typical half life
[2] = Binding affinity to cysteine assessed as typical half life
[3] = Binding affinity to glutathione assessed as typical half life at 1.4 nM
[4] = Binding affinity to cysteine assessed as typical half life at 1.4 nM

T1/2 [1] [h] | T1/2 [2] [h] | T1/2 [3] [h] | T1/2 [4] [h] | SMILES
40 | 2 |  |  | COC(=O)C1=C(C#N)NC(C)=C(C(=O)OC(C)C)C1c1cccc([N+](=O)[O-])c1 (stereo not given)
7.3 |  |  |  | COCCN1CCC(Cc2ccc(C(=O)NCc3cnc(C#N)nc3NCC(C)(C)C)cc2)CC1
 |  | 97 | < 10 | CCCN1CCN(c2ccc(C(=O)NC3(C(=O)NCC#N)CCCCC3)cc2)CC1
